Source: patent US11198869B2, “Angelman syndrome antisense treatment” (The Texas A&M University System, priority 2017, dated 2021)

What was measured:
UBE3A = UBE3A steady state RNA (qRT-PCR) in GABAergic iPSC-derived neurons; format: cell-based, human; details: 10-point dose curve 1 nM-30 μM; 14 DIV to 20 DIV
IPW = IPW steady state RNA (qRT-PCR) in GABAergic iPSC-derived neurons; details: 10-point dose curve 1 nM-30 μM; 14 DIV to 20 DIV
[1] = test system: SNORD116 host-gene transcript (SNHG116); test: RNA-sequencing of Angelman syndrome iPSC neurons: SNHG116; format: cell-based, human; details: 30 μM; six days post-treatment; RNA-seq
Description: (§1) RNA was isolated using Qiagen RNAeasy Plus (74136, Qiagen, Hilden, Germany). RNA concentration was determined using Qubit Fluorometric Quantitation (Thermo Fisher Scientific) and RNA quality was assessed using a 4200 Agilent TapeStation (Agilent, Santa Clara, Calif.). RNA-sequencing libraries were generated using the Illumina TruSeq Stranded Total RNA kit (20020597, Illumina, Inc., San Diego, Calif.) according to the manufacturer's protocol. 75 base-pair paired-end sequencing was performed using a NextSeq 500 (IIlumina, San Diego, Calif.) at the Texas A&M Institute for Genome Sciences and Society Genomics core. Raw sequencing reads were processed using CASAVA. The resulting FASTQ sequences were examined using FASTQC. […]
(§2) To determine whether ASO-4.4.PS.L and ASO-6.1.PO-1.O affect the levels of RNA transcripts encoded by the PWS polycistronic transcript, RNA-sequencing was performed on AS iPS cells treated with each ASO and the steady state RNA levels of SNURF, SNRPN, the SNORD116 host-gene transcript (SNHG116), the SNORD116 snoRNAs, IPW, the SNORD115 host-gene transcript (SNHG115), the SNORD115 snoRNAs, and UBE3A-AS were quantified. UBE3A steady state RNA levels were also measured. […]

SNORD116 snoRNAs = test: RNA-sequencing of Angelman syndrome iPSC neurons: SNORD116 snoRNAs; format: cell-based, human; details: 30 μM; six days post-treatment; RNA-seq
Description: as §1, §2

Compound | effect on total UBE3A RNA levels (in words) (UBE3A) | effect on IPW RNA levels (in words) (IPW) | Difference, SNHG116 RNA level relative to vehicle [1] | Difference, SNORD116 RNA level relative to vehicle (SNORD116 snoRNAs)
U^O*A^O*G^O*A^O*A^O*t*g*g*c*a*c*a*t*c*t*C^O*U^O*U^O*G^O*G^O [ASO-4] | increased total UBE3A RNA levels in a dose-dependent manner | significant effect on the RNA levels of IPW, SNORD115, and SNORD109A/B but not in a dose dependent manner |  | 
CC[C@@]1(O)C(=O)OCc2c1cc1n(c2=O)Cc2cc3c(CN(C)C)c(O)ccc3nc2-1 [Topotecan, reference compound] | increased total UBE3A RNA levels in a dose-dependent manner, except for Topotecan at higher concentrations | significant effect on SNORD116, IPW, SNORD115, and SNORD109A/B RNA levels that was dose dependent |  | 
C^O*U^O*G^O*G^O-t*g*t*c*a*a*c*a*a*g-C^O*C^O*A^O*A^o [ASO-6.1.PO-1.O] |  |  | −0.07 | −0.04
A^L*G^L*A^L*a*t*g*g*c*a*c*a*t*c*t*5mC^L*T^L*T^L*G^L (NNNATGGCACATCTNNNN; LNA gapmer, PS, 5-methylcytosine, chemistry not fully specified) [ASO-4.4.PS.L] |  |  | −0.24 | 0.27
